US9365584B2, “Thieno [2,3-B] pyridinedione activators of AMPK and therapeutic uses thereof” (Poxel, priority 2009, dated 2016)

Test system: AMPK
Assay: AMPK enzyme activity assay (Delfia technology, AMARA peptide substrate)
Type: biochemical
Conditions: compound at 30 μM vs AMP at 200 μM
How it was run: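 Value is the ratio of compound (30 μM) to AMP (200 μM) response, each as % of basal control. Phosphorylation of the AMARA peptide after AMPK addition was read by Delfia with an anti-phosphoserine antibody.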

Activity: Ratio between the % of control (basal activity) of compound of formula (1) at 30 μM and the % of control (basal activity) of AMP (natural substrate) at 200 μM | Compound
C (C≧75%) | Cc1ccc(-c2c(F)sc3c2C(=O)C(F)(c2ccccc2)C(=O)N3)cc1O (centres unmarked) [No 116, 2,5-difluoro-3-(3-hydroxy-4-methyl-phenyl)-5-phenyl-7H-thieno[2,3-b]pyridine-4,6-dione]
A (0%<A<50%) | Cc1ccc(C2(C)C(=O)Nc3sc(Cl)c(-c4cccc(C)c4)c3C2=O)cc1 (centres unmarked) [No 117, 2-chloro-5-methyl-3-(m-tolyl)-5-(p-tolyl)-7H-thieno[2,3-b]pyridine-4,6-dione]
B (50%≦B<75%) | COc1cc(C)ccc1-c1csc2c1C(=O)C(F)(c1ccccc1)C(=O)N2 (centres unmarked) [No 118, 5-fluoro-3-(2-methoxy-4-methyl-phenyl)-5-phenyl-7H-thieno[2,3-b]pyridine-4,6-dione]
B (50%≦B<75%) | COc1cc(C)ccc1-c1c(F)sc2c1C(=O)C(F)(c1ccccc1)C(=O)N2 (centres unmarked) [No 119, 2,5-difluoro-3-(2-methoxy-4-methyl-phenyl)-5-phenyl-7H-thieno[2,3-b]pyridine-4,6-dione]
A (0%<A<50%) | CS(=O)(=O)c1cccc(-c2csc3c2C(=O)C(F)(c2ccccc2)C(=O)N3)c1 (centres unmarked) [No 120, 5-fluoro-3-(3-methylsulfonylphenyl)-5-phenyl-7H-thieno[2,3-b]pyridine-4,6-dione]
C (C≧75%) | Cc1ccc(-c2csc3c2C(=O)C(F)(c2ccccc2)C(=O)N3)c(O)c1 (centres unmarked) [No 121, 5-fluoro-3-(2-hydroxy-4-methyl-phenyl)-5-phenyl-7H-thieno[2,3-b]pyridine-4,6-dione]
C (C≧75%) | O=C1Nc2scc(-c3c(F)cccc3F)c2C(=O)C1(F)c1ccccc1 (centres unmarked) [No 122, 3-(2,6-difluorophenyl)-5-fluoro-5-phenyl-7H-thieno[2,3-b]pyridine-4,6-dione]
C (C≧75%) | O=C1Nc2scc(-c3ccc(Br)cc3O)c2C(=O)C1(F)c1ccccc1 (centres unmarked) [No 123, 3-(4-bromo-2-hydroxy-phenyl)-5-fluoro-5-phenyl-7H-thieno[2,3-b]pyridine-4,6-dione]
B (50%≦B<75%) | O=C1Nc2scc(-c3ccc(Br)cc3)c2C(=O)C1(F)c1ccncc1 (centres unmarked) [No 124, 3-(4-bromophenyl)-5-fluoro-5-(4-pyridyl)-7H-thieno[2,3-b]pyridine-4,6-dione]
A (0%<A<50%) | O=C1Nc2scc(-c3ccccc3Br)c2C(=O)C1(F)c1ccccc1 (centres unmarked) [No 125, 3-(2-bromophenyl)-5-fluoro-5-phenyl-7H-thieno[2,3-b]pyridine-4,6-dione]
B (50%≦B<75%) | COc1cccc(C2(C)C(=O)Nc3sc(Cl)c(-c4cccc(C)c4)c3C2=O)c1 (centres unmarked) [No 126, 2-chloro-5-(3-methoxyphenyl)-5-methyl-3-(m-tolyl)-7H-thieno[2,3-b]pyridine-4,6-dione]
A (0%<A<50%) | COc1cc(Br)ccc1-c1csc2c1C(=O)C(F)(c1ccccc1)C(=O)N2 (centres unmarked) [No 127, 3-(4-bromo-2-methoxy-phenyl)-5-fluoro-5-phenyl-7H-thieno[2,3-b]pyridine-4,6-dione]
A (0%<A<50%) | COc1cc(Br)ccc1-c1c(F)sc2c1C(=O)C(F)(c1ccccc1)C(=O)N2 (centres unmarked) [No 128, 3-(4-bromo-2-methoxy-phenyl)-2,5-difluoro-5-phenyl-7H-thieno[2,3-b]pyridine-4,6-dione]
B (50%≦B<75%) | Cc1ccccc1-c1csc2c1C(=O)C(F)(c1ccccc1)C(=O)N2 (centres unmarked) [No 129, 5-fluoro-3-(o-tolyl)-5-phenyl-7H-thieno[2,3-b]pyridine-4,6-dione]
B (50%≦B<75%) | Cc1ccccc1-c1c(F)sc2c1C(=O)C(F)(c1ccccc1)C(=O)N2 (centres unmarked) [No 130, 2,5-difluoro-3-(o-tolyl)-5-phenyl-7H-thieno[2,3-b]pyridine-4,6-dione]
B (50%≦B<75%) | O=C1Nc2scc(-c3ccccc3)c2C(=O)C1(F)c1cccc(C(F)(F)F)c1 (centres unmarked) [No 131, 5-fluoro-3-phenyl-5-[3-(trifluoromethyl)phenyl]-7H-thieno[2,3-b]pyridine-4,6-dione]

Activity: Ratio between the % of control (basal activity) of compound of formula (1) at 30 μM and the % of control (basal activity) of AMP (natural substrate) at 200 μM | Compound
A (0%<A<50%) | O=C1Nc2sc(F)c(-c3ccccc3)c2C(=O)C1(F)c1cccc(C(F)(F)F)c1 (centres unmarked) [No 132, 2,5-difluoro-3-phenyl-5-[3-(trifluoromethyl)phenyl]-7H-thieno[2,3-b]pyridine-4,6-dione]
A (0%<A<50%) | O=C1Nc2scc(-c3ccccc3)c2C(=O)C1(F)c1ccc(C(F)(F)F)cc1 (centres unmarked) [No 133, 5-fluoro-3-phenyl-5-[4-(trifluoromethyl)phenyl]-7H-thieno[2,3-b]pyridine-4,6-dione]
A (0%<A<50%) | O=C1Nc2sc(F)c(-c3ccccc3)c2C(=O)C1(F)c1ccc(C(F)(F)F)cc1 (centres unmarked) [No 134, 2,5-difluoro-3-phenyl-5-[4-(trifluoromethyl)phenyl]-7H-thieno[2,3-b]pyridine-4,6-dione]
A (0%<A<50%) | O=C1Nc2scc(-c3ccc(C(F)(F)F)cc3)c2C(=O)C1(F)c1ccccc1 (centres unmarked) [No 135, 5-fluoro-5-phenyl-3-[4-(trifluoromethyl)phenyl]-7H-thieno[2,3-b]pyridine-4,6-dione]
B (50%≦B<75%) | Cc1cccc(-c2csc3c2C(=O)C(F)(c2ccccc2)C(=O)N3)c1 (centres unmarked) [No 136, 5-fluoro-3-(m-tolyl)-5-phenyl-7H-thieno[2,3-b]pyridine-4,6-dione]
C (C≧75%) | Cc1cccc(-c2c(F)sc3c2C(=O)C(F)(c2ccccc2)C(=O)N3)c1 (centres unmarked) [No 137, 2,5-difluoro-3-(m-tolyl)-5-phenyl-7H-thieno[2,3-b]pyridine-4,6-dione]
B (50%≦B<75%) | O=C1Nc2scc(-c3ccccc3Cl)c2C(=O)C1(F)c1ccccc1 (centres unmarked) [No 138, 3-(2-chlorophenyl)-5-fluoro-5-phenyl-7H-thieno[2,3-b]pyridine-4,6-dione]
A (0%<A<50%) | CC1(c2cccc(S(C)(=O)=O)c2)C(=O)Nc2sc(Cl)c(-c3ccccc3F)c2C1=O (centres unmarked) [No 139, 2-chloro-3-(2-fluorophenyl)-5-methyl-5-(3-methyl-sulfonylphenyl)-7H-thieno[2,3-b]pyridine-4,6-dione]
A (0%<A<50%) | CC1(c2ccc(O)cc2)C(=O)Nc2sc(Cl)c(-c3ccccc3)c2C1=O (centres unmarked) [No 140, 2-chloro-5-(4-hydroxyphenyl)-5-methyl-3-phenyl-7H-thieno[2,3-b]pyridine-4,6-dione]
A (0%<A<50%) | COc1ccccc1-c1c(Cl)sc2c1C(=O)C(C)(c1ccc(S(C)(=O)=O)cc1)C(=O)N2 (centres unmarked) [No 141, 2-chloro-3-(2-methoxyphenyl)-5-methyl-5-(4-methyl-sulfonylphenyl)-7H-thieno[2,3-b]pyridine-4,6-dione]
A (0%<A<50%) | CC(C)(C)c1ccc(-c2csc3c2C(=O)C(F)(c2ccccc2)C(=O)N3)cc1 (centres unmarked) [No 142, 3-(4-tert-butylphenyl)-5-fluoro-5-phenyl-7H-thieno[2,3-b]pyridine-4,6-dione]
A (0%<A<50%) | CC(C)(C)c1ccc(-c2c(Cl)sc3c2C(=O)C(F)(c2ccccc2)C(=O)N3)cc1 (centres unmarked) [No 143, 3-(4-tert-butylphenyl)-2-chloro-5-fluoro-5-phenyl-7H-thieno[2,3-b]pyridine-4,6-dione]
A (0%<A<50%) | Cc1ccc(-c2c(Cl)sc3c2C(=O)C(C)(c2cccc(C)c2)C(=O)N3)cc1 (centres unmarked) [No 144, 2-chloro-5-methyl-5-(m-tolyl)-3-(p-tolyl)-7H-thieno[2,3-b]pyridine-4,6-dione]
A (0%<A<50%) | COc1ccccc1-c1c(Cl)sc2c1C(=O)C(C)(c1ccccc1)C(=O)N2 (centres unmarked) [No 145, 2-chloro-3-(2-methoxyphenyl)-5-methyl-5-phenyl-7H-thieno[2,3-b]pyridine-4,6-dione]
A (0%<A<50%) | COc1ccc(C2(C)C(=O)Nc3sc(Cl)c(-c4cccc(F)c4)c3C2=O)cc1 (centres unmarked) [No 146, 2-chloro-3-(3-fluorophenyl)-5-(4-methoxyphenyl)-5-methyl-7H-thieno[2,3-b]pyridine-4,6-dione]
C (C≧75%) | O=C1Nc2scc(-c3ccccc3O)c2C(=O)C1(F)c1ccccc1 (centres unmarked) [No 147, 5-fluoro-3-(2-hydroxyphenyl)-5-phenyl-7H-thieno[2,3-b]pyridine-4,6-dione]
